Consider one compound from article PMC5666006, “Combating virulence of Gram-negative bacilli by OmpA inhibition” (Scientific Reports, 2017).

Where a SMILES comes first, the peptide text is derived from it. [ ]: non-standard residue; d: D form. Where only a bound is given, the exact number is not on record here.

Series [1] deals with P. aeruginosa PaO1. The experiment in a line: Murine peritoneal sepsis model. It counts as in vivo, mouse. On the procedure: (§1) Murine peritoneal sepsis models with A. baumannii ATCC 17978, P. aeruginosa PaO1 or E. coli ATCC 25922 strains were established by i.p. inoculation of the bacteria. Briefly, mice were inoculated with 0.5 mL of the bacterial suspensions, which were incubated for 20–24 h in LB at 37 °C and mixed in a 1:1 ration with a saline solution containing 10% (w/v) porcine mucin (Sigma, Spain).
(§2) The murine peritoneal sepsis models by A. baumannii ATCC 17978, P. aeruginosa PaO1 or E. coli ATCC 25922 strains were established by i.p. inoculation of the bacteria. Briefly, animals were infected i.p. with 0.5 mL of the MLD100 of A. baumannii ATCC 17978, P. aeruginosa PaO1, or E. coli ATCC 25922 strains mixed 1:1 with 10% porcine mucin. […] Fifthy-six mice were randomly ascribed to the following groups: 1). controls (without treatment), and 2). […] Mortality was recorded over 72 h. After death or sacrifice of the mice at the end of the experimental period, aseptic thoracotomies were performed, and blood samples were obtained by cardiac puncture for qualitative blood cultures. The spleen and lungs were aseptically removed and homogenized (Stomacher 80; Tekmar Co., USA) in 2 mL of sterile NaCl 0.9% solution. Ten-fold dilutions of the homogenized spleen and lungs were plated onto Sheep blood agar for quantitative cultures (log CFU/g of spleen or lungs).

In series [2] the test system is E. coli ATCC 25922. The series can be described thus: Murine peritoneal sepsis model. It counts as in vivo, mouse. On the procedure:
as §1, §2

In series [3] the test system is A. baumannii ATCC 17978. The series can be described thus: Murine peritoneal sepsis model. It counts as in vivo, mouse. The procedure: as §1, §2
Series [4] concerns A. baumannii ATCC 17978. It counts as cell-based. The procedure:
In the initial screening, the bactericidal activity of the synthetic peptides and their toxicity on human lung epithelial cells (A549) were evaluated.
Table S1. MICs of the six hexapeptides for A. baumannii and E. coli.
Peptides P. aeruginosa PaO1
MIC: minimal inhibitory concentration

Series [5] deals with JPAB01: ompA-deficient ATCC 17978 strain. The series can be described thus: Bacterial cytotoxicity on A549 cells, MTT assay. Type of series: cell-based, A. baumannii. Particulars: JPAB01, 0.5 mg/mL, 48 h. The procedure:
Bacterial cytotoxicity. […] Prior the evaluation of bacterial cytotoxicity, we firstly removed viable bacteria from A549 cells cultures and washed A549 cells five times with pre-warmed PBS. Then, cellular viability was assessed as indicated above.
Figure S5. Cell death induced by A. baumannii ATCC 17978 and JPAB01 strains. A549 cells were infected for 48 h with 10^8 CFU/mL of ATCC 17978 and JPAB01 strains treated with AOA-2 (0 or 0.5 mg/mL). Bacterial cytotoxicity was assessed by monitoring the mitochondrial reduction activity using the MTT assay. Representative results of two independent experiments are shown; data are means ± SEM. JPAB01: ompA-deficient ATCC 17978 strain. *P<0.05: between infected and non-infected cells, #P<0.05: between untreated and treated groups. […]

Series [6] has as its system P. aeruginosa PaO1. The series can be described thus: Adhesion of bacteria to A549 cells. It counts as cell-based. The following applies: 0.25 or 0.5 mg/mL, 2 h. On the procedure: (§3) Subsequently, infected A549 cells were washed five times with pre-warmed PBS and lysed with 0.5% Triton X-100. Diluted lysates were plated onto blood agar (Blood-Agar Columbia, Becton Dickinson Microbiology Systems, USA) and incubated at 37 °C for 24 h for enumeration of developed colonies and then the determination of the number of bacteria that attached to A549 cells.

In series [7] the test system is E. coli ATCC 25922. The series can be described thus: Adhesion of bacteria to A549 cells. Type of series: cell-based. The following applies: 0.25 or 0.5 mg/mL, 2 h. The procedure: as §3
The target of a further series is T1, E. coli OmpA (Escherichia coli, UniProt P0A910).
T1 construct: A recombinant 37 kDa polypeptide fragment containing the transmembrane and periplasmatic domains of the E. coli OmpA protein; purchased NovoPro (China)
T1 sequence (P0A910 22-346): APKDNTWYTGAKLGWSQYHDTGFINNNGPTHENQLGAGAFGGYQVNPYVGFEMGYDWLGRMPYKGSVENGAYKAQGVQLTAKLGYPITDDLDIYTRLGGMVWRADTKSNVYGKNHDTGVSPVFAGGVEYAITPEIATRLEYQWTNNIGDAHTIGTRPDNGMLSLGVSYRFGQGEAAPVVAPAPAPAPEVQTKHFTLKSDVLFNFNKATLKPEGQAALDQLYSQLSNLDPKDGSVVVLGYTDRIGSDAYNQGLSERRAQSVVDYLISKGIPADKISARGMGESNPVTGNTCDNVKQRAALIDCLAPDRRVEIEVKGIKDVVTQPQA
The experiment in a line: NMR detection of binding (1H, STD, PFG diffusion). Particulars: AOA-2 750 μM, OmpA 8 μM, 1 mM Triton X-100, pH 7.3, 25 °C. On the procedure: A recombinant 37 kDa polypeptide fragment containing the transmembrane and periplasmatic domains of the E. coli OmpA protein was purchased from NovoPro (China). OmpA samples contained Triton X-100 to mimic the membrane environment.
All NMR experiments were recorded at 25 °C on a Bruker Avance 800 MHz spectrometer equipped with a cryoprobe.
Saturation transfer difference[38] (STD) experiments were obtained using a pseudo-2D pulse sequence for the interleaved acquisition of on-resonance and off-resonance spectra. Total saturation time was 3 seconds. Suppression of the residual water signal was achieved by excitation sculpting.
Diffusion NMR experiments were performed using the LED pulse sequence[40] with gradient lengths of 3 ms and a diffusion delay of 110 ms. The total inter-scan delay was 4.5 s.

The next series relates to C57BL/6 female mice. The series can be described thus: AOA-2 in vivo toxicity (Reed and Munch method). On the set-up: species or system mouse. The procedure:
(§4) Animals were housed in regulation cages with food and water ad libitum. This study was carried out in strict accordance with the recommendations in the Guide for the Care and Use of Laboratory Animals[41]. The protocol was approved by the Committee on the Ethics of Animal Experiments of the University Hospital of Virgen del Rocío, Seville (2012PI/238). All surgery was performed under sodium thiopental anaesthesia, and all efforts were made to minimize suffering.
(§5) The Reed and Munch method was used[42]. […] LD50 value was determined using the Probit method.
(§6) 20, 40, 80 or 160 mg/kg. Mice survival was monitored for a one week and lethal doses (LD) 0,
(§7) 50 and 100 were calculated.

A short description of series [8]: AOA-2 in vivo toxicity (Reed and Munch method). Particulars: female, C57BL/6, mouse, in vivo, ip, mice, single i.p. dose, groups of six, survival one week. On the set-up: species or system mouse. The procedure: as §4, §5, §6, §7
Series [9] deals with A. baumannii ATCC 17978. The experiment in a line: Adhesion of bacteria to A549 cells. Type of series: cell-based. The following applies: 2 h. On the procedure:
as §3
Figure S3. OmpA inhibitor hexapeptides reduce A. baumannii adherence to A549 cells. A549 cells were infected with 10^8 CFU/mL of ATCC 17978 strain during 2 h in presence of AOA-1, […]
of bacterial adherence was calculated as follow: [(number of colonies of treated A549 cells with peptide / number of colonies of non-treated cells) x 100]. Representative results of three independent experiments are shown; data are means ± SEM. *P<0.05: between untreated and […]

Setting [10] is: P. aeruginosa PaO1, 10 mg/kg/d i.p., 72 h.
[11] abbreviates: P. aeruginosa PaO1 MLD i.p., 10 mg/kg AOA-2 i.p. 2 h after challenge.
The mark [12] stands for this setting: E. coli ATCC 25922, 10 mg/kg/d i.p., 72 h.
[13] abbreviates: E. coli ATCC 25922 MLD i.p., 10 mg/kg AOA-2 i.p. 2 h after challenge.
Where [14] appears, read: A. baumannii ATCC 17978, 10 mg/kg/d i.p., 72 h.
Setting [15] is: A. baumannii ATCC 17978 MLD i.p., 10 mg/kg AOA-2 i.p. 2 h after challenge.

Take `N=C(N)NCCC[C@@H]1NC(=O)[C@H]2CCCN2C(=O)[C@H](Cc2c[nH]c3ccccc23)NC(=O)[C@H](CCCNC(=N)N)NC(=O)[C@H]2CCCN2C(=O)[C@H](Cc2c[nH]c3ccccc23)NC1=O` [AOA-2] (cyclo(RW[dP]RW[dP])): the “mouse mortality (in words)” value in the series with P. aeruginosa PaO1 [1] (setting [10]), with E. coli ATCC 25922 [2] (setting [12]) and in the series on A. baumannii ATCC 17978 [3] (setting [14]) was “decreased” each time. Besides, the “positive blood cultures (in words)” value in the series on P. aeruginosa PaO1 [1] (setting [10]), in the series on E. coli ATCC 25922 [2] (setting [12]) and in the series on A. baumannii ATCC 17978 [3] (setting [14]) was “decreased” throughout. Further, the figures for the “reduced the bacterial load in the lungs” value in the series with P. aeruginosa PaO1 [1] (setting [11]), with E. coli ATCC 25922 [2] (setting [13]) and in the series with A. baumannii ATCC 17978 [3] (setting [15]) were 4.29 log CFU/g, 3.47 log CFU/g and 4.34 log CFU/g, respectively. In addition, the results for the “reduced the bacterial load in the spleen” value with P. aeruginosa PaO1 [1] (setting [11]), in the series with E. coli ATCC 25922 [2] (setting [13]) and in the series on A. baumannii ATCC 17978 [3] (setting [15]) were 4.04 log CFU/g, 3.36 log CFU/g and 4.54 log CFU/g, respectively. The MIC against A. baumannii ATCC 17978 [4] is more than 500 µg/mL. For the same compound, the “A549 cell death induced by ompA-deficient A. baumannii (in words)” value in [5] is on record as “no effect on cell death”. In the series on P. aeruginosa PaO1 [6], the “adherence of P. aeruginosa to A549 cells (in words)” value was “significant reduction in adherence”. In addition, the “adherence of E. coli to A549 cells (in words)” value with E. coli ATCC 25922 [7] is given as “significant reduction in adherence”. Besides, the “binding to OmpA by NMR (in words)” value on E. coli OmpA was “interacting with OmpA”. Moreover, the “dose without any evidence of toxicity” value with C57BL/6 female mice (i.p.) is on record as not above 40 mg/kg. In addition, in the series on C57BL/6 female mice (single i.p. dose, groups of six, survival one week), the LD100 amounted to 160 mg/kg. Besides, in series [8] (Probit method), the LD50 at 168 h worked out at 85 mg/kg. The MTD at 168 h in series [8] (read-out: LD0 (maximum tolerated dose)) came out at 40 mg/kg. The “reduction in the adherence of A. baumannii to A549 cells” value with A. baumannii ATCC 17978 [9] (0.25 mg/mL, 10^8 CFU/mL) is “more than 60%”. Further, in the series with A. baumannii ATCC 17978 [9] (0.25, 0.5, 1 mg/mL), the “ability to reduce A. baumannii adherence to A549 cells, rank among synthesized peptides (in words)” value is reported as “greatest ability to reduce the A. baumannii adherence to A549 cells”.
